Laboratory results as given in ChEMBL document CHEMBL1201862, “PubChem BioAssay data set” (2004).
Calls of active or inactive are those of the source.

Legend:
[1] = biological target: T1, Runt-related transcription factor 1/Core-binding factor subunit beta (Homo sapiens, UniProt Q01196+Q13951); test: disruptors of Runt domain/CBFb-SMMHC interaction – biochemical, FRET, Cerulean-Runt, Venus-CBFb-SMMHC, uHTS, […] (AID 1434); type: protein assay
[2] = biological target: T1, Runt-related transcription factor 1/Core-binding factor subunit beta; test: Runt domain/CBFb-SMMHC interaction disruptors – biochemical, TR-FRET (AID 1438); type: protein assay
[3] = Intein inhibitors as potential Tuberculosis drugs, a cytotoxicity screen. [Related pubchem assays (depositor defined):AID2221, AID2223, AID434968, AID435010, AID449749, AID449750, AID489010]; type: functional
[4] = biological target: T2, Replicative DNA helicase DnaB (Mycobacterium tuberculosis, UniProt P9WMR3); test: DnaB intein splicing inhibitors, dose response, biochemical, cell-free fluorescence (AID 449749); type: functional
T2 sequence (P9WMR3 whole entry): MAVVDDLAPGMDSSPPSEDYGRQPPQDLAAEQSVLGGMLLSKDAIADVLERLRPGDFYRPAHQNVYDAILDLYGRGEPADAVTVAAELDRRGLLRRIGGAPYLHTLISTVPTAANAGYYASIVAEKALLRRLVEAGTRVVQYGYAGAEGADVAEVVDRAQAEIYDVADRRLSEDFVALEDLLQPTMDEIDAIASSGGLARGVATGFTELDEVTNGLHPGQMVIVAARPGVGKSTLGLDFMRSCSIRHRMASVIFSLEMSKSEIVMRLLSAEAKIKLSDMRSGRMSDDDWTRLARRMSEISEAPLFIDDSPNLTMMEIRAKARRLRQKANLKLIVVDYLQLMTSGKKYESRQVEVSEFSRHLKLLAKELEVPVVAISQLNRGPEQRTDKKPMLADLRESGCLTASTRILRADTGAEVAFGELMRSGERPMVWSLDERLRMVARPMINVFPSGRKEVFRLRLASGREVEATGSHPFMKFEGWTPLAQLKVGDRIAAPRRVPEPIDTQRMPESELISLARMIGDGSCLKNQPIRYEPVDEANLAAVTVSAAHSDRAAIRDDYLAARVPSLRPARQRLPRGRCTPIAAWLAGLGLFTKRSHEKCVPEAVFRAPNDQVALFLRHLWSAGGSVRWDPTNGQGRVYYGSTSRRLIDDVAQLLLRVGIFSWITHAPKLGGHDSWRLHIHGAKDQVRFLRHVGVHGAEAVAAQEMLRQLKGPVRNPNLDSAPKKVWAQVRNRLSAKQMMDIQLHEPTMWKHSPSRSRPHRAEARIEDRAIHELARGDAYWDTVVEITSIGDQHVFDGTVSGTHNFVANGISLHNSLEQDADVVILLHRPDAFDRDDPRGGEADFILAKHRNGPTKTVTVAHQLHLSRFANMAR

Genome polyprotein = Genome polyprotein (dengue virus type 2, UniProt P29990); test: flavivirus cap methylation enzyme inhibition – biochemical, confirmation dose response, primary screen (AID 588689); type: functional
Sequence of Genome polyprotein (P29990 2492-3391 limits assumed): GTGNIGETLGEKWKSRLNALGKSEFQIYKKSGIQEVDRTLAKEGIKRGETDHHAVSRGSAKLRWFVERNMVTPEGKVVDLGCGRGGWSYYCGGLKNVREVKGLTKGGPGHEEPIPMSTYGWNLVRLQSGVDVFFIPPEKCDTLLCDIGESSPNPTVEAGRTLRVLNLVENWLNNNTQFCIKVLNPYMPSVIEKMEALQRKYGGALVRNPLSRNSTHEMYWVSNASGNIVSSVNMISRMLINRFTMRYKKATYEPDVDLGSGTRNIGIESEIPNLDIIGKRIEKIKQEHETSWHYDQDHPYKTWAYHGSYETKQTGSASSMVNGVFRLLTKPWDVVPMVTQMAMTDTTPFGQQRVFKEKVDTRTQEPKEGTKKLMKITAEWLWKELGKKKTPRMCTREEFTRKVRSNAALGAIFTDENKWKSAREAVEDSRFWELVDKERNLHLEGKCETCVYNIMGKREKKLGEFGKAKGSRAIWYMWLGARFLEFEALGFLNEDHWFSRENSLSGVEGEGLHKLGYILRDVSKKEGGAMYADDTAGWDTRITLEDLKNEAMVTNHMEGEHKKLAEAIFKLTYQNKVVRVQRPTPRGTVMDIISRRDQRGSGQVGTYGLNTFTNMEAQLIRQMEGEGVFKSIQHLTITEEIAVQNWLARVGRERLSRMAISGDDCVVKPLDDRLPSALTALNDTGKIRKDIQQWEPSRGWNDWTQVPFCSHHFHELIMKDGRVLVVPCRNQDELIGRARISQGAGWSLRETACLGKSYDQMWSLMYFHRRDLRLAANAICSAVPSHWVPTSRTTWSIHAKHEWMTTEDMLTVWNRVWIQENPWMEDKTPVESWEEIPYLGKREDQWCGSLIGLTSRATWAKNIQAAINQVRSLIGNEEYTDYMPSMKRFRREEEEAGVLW

[5] = biological target: Hepatocyte nuclear factor 4-alpha (Homo sapiens, UniProt P41235); type: functional, cell-based;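 also: biochemical luminescence-based dose-response counterscreen measuring inhibition of HNF4 dimerization, run alongside a screen for blockers of ABHD5–perilipin-5 interaction; split luciferase complementation of HNF4 fusion proteins in cell lysate measuring dimerization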
[6] = non-specific 3'UTR reporter inhibition in Clone20-Shn3RL – cell-based, Renilla luciferase, cherry-picked, counter-screen for Shn3 inhibitor project, dose response (AID 624133); type: functional
[7] = reduction of Shn3 3'UTR-driven luciferase in osteoblasts – cell-based, Clone20 osteoblasts, firefly luciferase, cherry-picked, dose response (AID 624132); type: functional;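 also: firefly luciferase luminescence from reporter carrying the Shn3 3'UTR in osteoblasts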
[8] = biological target: Potassium voltage-gated channel subfamily KQT member 2 (Rattus norvegicus, UniProt O88943, W236L); test: potentiation of rat KCNQ2 current – cell-based, automated electrophysiology, mechanism study for KCNQ2 potentiator project, dose response (AID 2603); type: functional
Sequence of Potassium voltage-gated channel subfamily KQT member 2 (O88943 whole entry W236L): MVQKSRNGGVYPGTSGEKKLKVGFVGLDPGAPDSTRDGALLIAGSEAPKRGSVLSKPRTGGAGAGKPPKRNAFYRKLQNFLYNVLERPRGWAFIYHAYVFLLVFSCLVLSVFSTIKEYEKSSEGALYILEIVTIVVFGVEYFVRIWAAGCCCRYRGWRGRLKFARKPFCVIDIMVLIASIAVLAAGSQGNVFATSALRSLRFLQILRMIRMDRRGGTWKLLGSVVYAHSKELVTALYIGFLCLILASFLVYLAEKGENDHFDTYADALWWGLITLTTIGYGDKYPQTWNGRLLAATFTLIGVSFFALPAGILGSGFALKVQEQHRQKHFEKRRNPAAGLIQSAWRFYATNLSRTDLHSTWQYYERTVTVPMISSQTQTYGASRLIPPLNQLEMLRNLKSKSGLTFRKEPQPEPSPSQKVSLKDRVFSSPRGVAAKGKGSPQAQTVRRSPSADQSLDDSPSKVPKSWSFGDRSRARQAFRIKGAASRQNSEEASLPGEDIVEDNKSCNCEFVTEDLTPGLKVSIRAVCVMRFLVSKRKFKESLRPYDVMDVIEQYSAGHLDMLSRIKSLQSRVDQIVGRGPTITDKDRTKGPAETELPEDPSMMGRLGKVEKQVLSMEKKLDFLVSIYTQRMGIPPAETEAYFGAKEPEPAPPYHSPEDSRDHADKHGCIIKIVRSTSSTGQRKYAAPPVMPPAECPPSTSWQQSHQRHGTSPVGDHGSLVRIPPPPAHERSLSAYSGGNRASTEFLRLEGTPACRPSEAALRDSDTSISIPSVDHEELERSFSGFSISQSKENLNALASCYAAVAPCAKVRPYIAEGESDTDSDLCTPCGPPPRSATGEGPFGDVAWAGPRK

Vero = test: viability of Vero cells under compound – cytotoxicity control for flavivirus capping enzyme inhibitors (AID 588742); type: functional; conditions: Chlorocebus sabaeus
Protein RecA = biological target: T3, Protein RecA (Mycobacterium tuberculosis, UniProt P9WHJ3); test: Fluorescence Cell-Free Homogeneous Dose Retest to Identify Inhibitors of RecA-Intein Splicing Activity. [Related pubchem assays (depositor defined):AID2097, AID2223, AID489010, AID492950]; type: functional
T3 sequence (P9WHJ3 whole entry): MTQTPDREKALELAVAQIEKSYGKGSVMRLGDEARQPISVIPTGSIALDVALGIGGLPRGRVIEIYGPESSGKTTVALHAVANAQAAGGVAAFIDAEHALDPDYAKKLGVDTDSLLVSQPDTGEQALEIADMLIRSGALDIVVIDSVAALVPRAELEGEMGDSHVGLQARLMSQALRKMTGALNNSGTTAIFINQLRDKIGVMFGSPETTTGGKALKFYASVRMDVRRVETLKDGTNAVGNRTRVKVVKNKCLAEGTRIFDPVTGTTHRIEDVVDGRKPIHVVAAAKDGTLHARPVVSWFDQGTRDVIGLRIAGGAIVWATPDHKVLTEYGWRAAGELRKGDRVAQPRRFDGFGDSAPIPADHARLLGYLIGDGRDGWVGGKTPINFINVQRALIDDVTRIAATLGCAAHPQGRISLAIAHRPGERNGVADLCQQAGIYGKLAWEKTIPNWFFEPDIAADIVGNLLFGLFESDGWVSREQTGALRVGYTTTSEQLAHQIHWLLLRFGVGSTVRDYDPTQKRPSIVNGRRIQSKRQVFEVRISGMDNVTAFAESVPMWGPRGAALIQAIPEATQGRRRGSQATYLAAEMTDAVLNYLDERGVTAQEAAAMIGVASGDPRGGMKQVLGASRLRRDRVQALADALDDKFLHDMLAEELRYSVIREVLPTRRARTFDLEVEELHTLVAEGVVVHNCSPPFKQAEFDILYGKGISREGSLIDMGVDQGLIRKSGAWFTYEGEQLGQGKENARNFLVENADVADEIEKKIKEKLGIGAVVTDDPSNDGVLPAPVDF

[9] = biological target: T4, E3 ubiquitin-protein ligase XIAP (Homo sapiens, UniProt P98170); test: small molecules displacing peptide from XIAP – biochemical, IAP family, fluorescence polarization (AID 1018); type: functional
T4 sequence (P98170 whole entry): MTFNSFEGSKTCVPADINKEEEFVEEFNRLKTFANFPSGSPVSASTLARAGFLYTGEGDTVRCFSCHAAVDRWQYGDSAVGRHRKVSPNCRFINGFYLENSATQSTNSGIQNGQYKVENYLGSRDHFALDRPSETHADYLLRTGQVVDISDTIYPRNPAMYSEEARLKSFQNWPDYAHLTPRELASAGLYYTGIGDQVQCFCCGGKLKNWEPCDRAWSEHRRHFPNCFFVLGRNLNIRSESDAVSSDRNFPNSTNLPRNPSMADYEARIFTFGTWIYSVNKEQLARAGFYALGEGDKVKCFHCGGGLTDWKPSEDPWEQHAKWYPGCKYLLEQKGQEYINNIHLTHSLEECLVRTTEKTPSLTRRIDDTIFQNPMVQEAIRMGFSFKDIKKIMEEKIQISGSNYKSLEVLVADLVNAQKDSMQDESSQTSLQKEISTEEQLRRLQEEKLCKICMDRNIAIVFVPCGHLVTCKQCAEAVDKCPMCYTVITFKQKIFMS

[10] = biological target: T4, E3 ubiquitin-protein ligase XIAP; test: Counter Screen using XIAP-Bir3 for Chemical Antagonists of Bir1/2 domains of IAP-family anti-apoptotic proteins. [Related pubchem assays (depositor defined):AID1018, AID1449, AID1514, AID1638, AID1749, AID1750, AID488957, AID488963]
Coagulation factor XII = biological target: T5, Coagulation factor XII (Homo sapiens, UniProt P00748); test: activated coagulation factor XII inhibitor potency, concentration-effect curve, cell-free (AID 716); type: functional
T5 sequence (P00748 whole entry): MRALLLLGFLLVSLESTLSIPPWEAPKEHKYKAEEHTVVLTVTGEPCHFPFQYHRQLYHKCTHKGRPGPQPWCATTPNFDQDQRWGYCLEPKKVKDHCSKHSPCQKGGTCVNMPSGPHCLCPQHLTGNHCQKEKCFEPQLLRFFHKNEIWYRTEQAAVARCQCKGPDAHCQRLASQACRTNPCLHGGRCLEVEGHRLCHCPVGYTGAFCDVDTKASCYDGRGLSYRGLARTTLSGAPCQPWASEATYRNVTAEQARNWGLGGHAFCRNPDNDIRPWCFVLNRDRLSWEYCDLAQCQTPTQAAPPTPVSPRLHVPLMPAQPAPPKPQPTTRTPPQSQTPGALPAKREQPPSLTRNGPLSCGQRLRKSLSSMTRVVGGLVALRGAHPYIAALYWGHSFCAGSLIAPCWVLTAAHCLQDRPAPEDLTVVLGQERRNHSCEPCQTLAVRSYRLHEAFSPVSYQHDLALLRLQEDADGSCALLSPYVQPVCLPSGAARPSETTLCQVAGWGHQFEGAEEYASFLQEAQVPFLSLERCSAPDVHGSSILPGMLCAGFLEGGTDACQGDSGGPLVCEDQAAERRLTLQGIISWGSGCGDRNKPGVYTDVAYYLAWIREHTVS

Cytochrome P450 2D6 = Cytochrome P450 2D6 (Homo sapiens, UniProt P10635);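 also: CYP2D6 member of a cytochrome P450 panel assay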
Sequence of Cytochrome P450 2D6 (P10635 whole entry): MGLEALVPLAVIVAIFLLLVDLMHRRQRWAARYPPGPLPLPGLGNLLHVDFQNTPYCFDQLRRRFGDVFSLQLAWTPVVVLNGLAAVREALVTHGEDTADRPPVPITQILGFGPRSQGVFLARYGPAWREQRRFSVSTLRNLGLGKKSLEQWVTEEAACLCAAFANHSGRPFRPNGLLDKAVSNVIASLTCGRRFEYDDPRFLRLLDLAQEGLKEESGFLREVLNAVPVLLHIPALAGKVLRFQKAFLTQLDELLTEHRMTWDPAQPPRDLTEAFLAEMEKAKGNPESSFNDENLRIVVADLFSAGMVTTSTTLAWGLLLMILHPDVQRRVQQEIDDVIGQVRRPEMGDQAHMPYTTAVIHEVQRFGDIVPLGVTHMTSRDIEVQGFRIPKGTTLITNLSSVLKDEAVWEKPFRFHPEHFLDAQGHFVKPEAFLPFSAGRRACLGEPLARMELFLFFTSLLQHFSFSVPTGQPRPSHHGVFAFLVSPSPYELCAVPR

Cytochrome P450 2C19 = Cytochrome P450 2C19 (Homo sapiens, UniProt P33261); test: Cytochrome panel assay with activity outcomes. Panel member name: p450-cyp2c19 Compounds with AC50 equal or less than 10 uM are considered active; type: functional; conditions: read-out: AC50
Sequence of Cytochrome P450 2C19 (P33261 whole entry): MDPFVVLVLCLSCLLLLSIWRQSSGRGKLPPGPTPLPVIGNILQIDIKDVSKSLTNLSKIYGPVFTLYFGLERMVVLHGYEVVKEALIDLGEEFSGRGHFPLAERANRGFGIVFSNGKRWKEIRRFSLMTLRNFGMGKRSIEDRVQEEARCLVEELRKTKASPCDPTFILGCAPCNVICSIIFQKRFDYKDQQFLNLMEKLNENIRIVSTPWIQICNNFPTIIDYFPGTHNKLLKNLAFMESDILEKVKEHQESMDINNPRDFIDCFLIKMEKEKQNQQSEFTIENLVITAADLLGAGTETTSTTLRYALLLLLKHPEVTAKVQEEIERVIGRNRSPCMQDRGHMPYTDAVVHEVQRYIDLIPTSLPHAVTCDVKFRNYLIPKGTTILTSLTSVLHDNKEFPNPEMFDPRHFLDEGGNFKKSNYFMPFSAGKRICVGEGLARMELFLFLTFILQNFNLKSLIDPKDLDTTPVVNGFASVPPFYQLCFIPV

[11] = biological target: T6, Orexin/Hypocretin receptor type 1 (Homo sapiens, UniProt O43613); test: (§1) Fluorescence-based cell-based high throughput dose response assay for antagonists of the orexin 1 receptor (OX1R; HCRTR1). [Related pubchem assays (depositor defined):AID434989, AID435008, AID463079, AID485270, AID492963, AID492964, AID492965, AID493232, AID504717, AID504718]; type: functional
T6 sequence (O43613 whole entry): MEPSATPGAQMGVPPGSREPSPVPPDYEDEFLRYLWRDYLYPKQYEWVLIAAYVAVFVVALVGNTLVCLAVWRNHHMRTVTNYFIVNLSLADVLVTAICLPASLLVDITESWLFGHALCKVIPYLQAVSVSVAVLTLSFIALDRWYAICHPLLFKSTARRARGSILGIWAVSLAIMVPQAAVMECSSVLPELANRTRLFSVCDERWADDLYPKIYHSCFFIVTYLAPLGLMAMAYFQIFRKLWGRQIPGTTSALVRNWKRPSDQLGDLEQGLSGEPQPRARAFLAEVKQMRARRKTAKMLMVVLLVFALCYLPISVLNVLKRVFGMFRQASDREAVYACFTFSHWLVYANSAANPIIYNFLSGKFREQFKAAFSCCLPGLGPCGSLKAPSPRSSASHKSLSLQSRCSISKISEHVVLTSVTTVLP

CHO-K1 = test: (§2) Counterscreen for antagonists of the orexin 1 receptor (OX1R; HCRTR1): Homogeneous time resolved fluorescence (HTRF)-based cell-based dose response assay to identify antagonists of the parental CHO-K1 cell line. [Related pubchem assays (depositor defined):AID434989, AID435008, AID463079, AID485270, AID492963, AID492964, AID492965, AID493232, AID504699, AID504701]; type: functional; conditions: Cricetulus griseus
[12] = viability of uninfected HEp-2 cells – cell-based, HTS, cytotoxicity control for RSV inhibitor project, dose response (AID 2410); type: functional; conditions: human respiratory syncytial virus
[13] = as §2, with “Fluorescence-based” for “Homogeneous time resolved fluorescence (HTRF)-based”, “cell-based high throughput” for “cell-based”, “CHO” for “CHO-K1”; type: functional
[14] = biological target: T6, Orexin/Hypocretin receptor type 1; test: as §1, with “Homogeneous Time Resolved Fluorescence (HTRF)-based” for “Fluorescence-based”; type: functional
[15] = biological target: T7, Corticotropin-releasing factor receptor 2/Corticotropin-releasing factor-binding protein (Homo sapiens, UniProt P24387+Q13324); test: Dose Response confirmation of uHTS hits for small molecule antagonists of the CRF-binding protein and CRF-R2 receptor complex.; type: functional; conditions: read-out: IC50_Mean
T7 sequence (Q13324 whole entry): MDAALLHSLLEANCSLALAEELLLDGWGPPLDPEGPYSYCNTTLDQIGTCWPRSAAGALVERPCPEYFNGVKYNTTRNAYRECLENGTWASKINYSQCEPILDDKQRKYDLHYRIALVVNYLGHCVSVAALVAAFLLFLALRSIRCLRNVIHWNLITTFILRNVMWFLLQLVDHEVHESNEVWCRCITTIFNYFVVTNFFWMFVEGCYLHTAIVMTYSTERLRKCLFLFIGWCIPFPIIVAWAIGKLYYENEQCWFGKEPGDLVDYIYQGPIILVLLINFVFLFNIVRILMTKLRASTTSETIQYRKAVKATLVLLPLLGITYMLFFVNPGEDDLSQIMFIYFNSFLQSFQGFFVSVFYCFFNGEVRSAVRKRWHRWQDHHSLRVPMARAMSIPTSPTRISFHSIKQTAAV
T7 sequence (P24387 whole entry): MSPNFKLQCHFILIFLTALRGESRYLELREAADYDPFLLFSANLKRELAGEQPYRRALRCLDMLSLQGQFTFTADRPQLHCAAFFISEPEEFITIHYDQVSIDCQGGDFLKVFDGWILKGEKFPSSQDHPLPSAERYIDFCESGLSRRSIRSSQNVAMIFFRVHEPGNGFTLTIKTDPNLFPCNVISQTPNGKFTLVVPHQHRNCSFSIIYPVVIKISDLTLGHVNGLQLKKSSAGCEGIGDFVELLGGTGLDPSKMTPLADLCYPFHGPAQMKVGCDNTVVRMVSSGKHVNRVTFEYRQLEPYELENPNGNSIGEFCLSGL

[16] = blockers of CRF-binding protein–CRF-R2 complex – cell-based, uHTS hits, 384-well, dose response (AID 651639); type: functional, Homo sapiens; conditions: read-out: IC50_Mean
[17] = biological target: Intestinal-type alkaline phosphatase (Homo sapiens, UniProt P09923); test: human intestinal alkaline phosphatase activators, dose response, biochemical, luminescence, uHTS hits (AID 463120); type: functional
Sequence of Intestinal-type alkaline phosphatase (P09923 whole entry): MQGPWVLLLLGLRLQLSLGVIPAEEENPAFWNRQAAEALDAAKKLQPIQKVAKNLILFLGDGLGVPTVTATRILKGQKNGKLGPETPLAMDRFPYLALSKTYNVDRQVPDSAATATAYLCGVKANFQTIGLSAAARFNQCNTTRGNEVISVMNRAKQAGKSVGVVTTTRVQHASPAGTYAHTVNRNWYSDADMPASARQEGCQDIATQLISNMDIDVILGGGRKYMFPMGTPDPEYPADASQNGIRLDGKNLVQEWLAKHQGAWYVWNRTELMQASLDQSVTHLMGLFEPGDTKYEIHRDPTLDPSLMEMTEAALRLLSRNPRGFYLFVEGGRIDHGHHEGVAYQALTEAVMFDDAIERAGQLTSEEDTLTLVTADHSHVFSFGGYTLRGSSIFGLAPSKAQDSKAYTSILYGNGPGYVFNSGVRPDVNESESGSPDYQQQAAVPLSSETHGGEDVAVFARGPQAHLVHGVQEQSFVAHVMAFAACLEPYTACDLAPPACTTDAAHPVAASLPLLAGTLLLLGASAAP

[18] = biological target: T7, Corticotropin-releasing factor receptor 2/Corticotropin-releasing factor-binding protein; test: activators of CRF receptor 2 with binding protein – uHTS hits, confirmation (AID 602473); type: functional; conditions: read-out: EC50_Mean

T1 sequence (Q01196 whole entry, the tested form may be a part): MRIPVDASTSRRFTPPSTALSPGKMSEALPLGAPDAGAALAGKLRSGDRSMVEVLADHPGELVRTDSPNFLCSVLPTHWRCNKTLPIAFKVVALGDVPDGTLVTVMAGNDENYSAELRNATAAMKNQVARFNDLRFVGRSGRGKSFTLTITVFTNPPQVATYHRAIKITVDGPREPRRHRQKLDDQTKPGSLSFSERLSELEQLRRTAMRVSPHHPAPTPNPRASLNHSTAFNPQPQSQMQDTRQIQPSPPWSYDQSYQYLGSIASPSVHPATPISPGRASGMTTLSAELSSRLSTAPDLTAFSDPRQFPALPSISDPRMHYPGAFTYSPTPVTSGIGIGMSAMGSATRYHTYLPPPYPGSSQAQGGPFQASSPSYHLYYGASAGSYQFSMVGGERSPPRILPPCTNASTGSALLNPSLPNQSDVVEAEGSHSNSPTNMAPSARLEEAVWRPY
T1 sequence (Q13951 whole entry, the tested form may be a part): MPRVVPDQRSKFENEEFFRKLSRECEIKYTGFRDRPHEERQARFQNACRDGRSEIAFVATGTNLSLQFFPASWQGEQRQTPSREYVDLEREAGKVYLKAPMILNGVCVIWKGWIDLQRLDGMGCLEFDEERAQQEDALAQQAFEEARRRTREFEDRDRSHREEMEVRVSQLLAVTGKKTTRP

Which IC50 [1] does the source give for `CN1c2ccsc2C(O)=C(C(S)=Nc2ccc(F)c(Cl)c2)S1(=O)=O` here?
Its IC50 is > 100 µM (inactive).

What about the IC50 [2] of the same compound?
The IC50 was > 100 µM (inactive).

Which results are given for `CSc1nnc(NC(=O)c2nc(S(=O)(=O)Cc3cccc(C)c3)ncc2Cl)s1`?
CC50 [3]: 26.7 µM (active); AC50 [4]: 3.49 µM (active); IC50 (Genome polyprotein): 44.5 µM (active); IC50 [5]: 4.45 µM (active); AC50 [6]: 11.5 µM (active); AC50 [7]: 4.03 µM (active); EC50 [8]: 1.83 µM (active); CC50 (Vero): 24.9 µM (active); EC50 (Protein RecA): 3.16 µM (active)

Which IC50 [9] does the source give for `COc1ccc(NC(=O)N2CCC(c3nc(-c4cccs4)no3)CC2)cc1` here?
The IC50 was > 100 µM (not active).

What about the IC50 [10] of the same compound?
The IC50 was > 100 µM (inactive).

With `CCS(=O)(=O)N1CCC(C(=O)NCc2ccc(F)cc2Cl)CC1` as the compound, how does the IC50 (Coagulation factor XII) read?
Its IC50 is > 50 µM (inactive).

And the AC50 (Cytochrome P450 2D6)?
The AC50 was 14.1 µM (inconclusive).

What about the AC50 (Cytochrome P450 2C19) of the same compound?
Its AC50 is 39.8 µM (inconclusive).

With `Cc1cc(C)cc(NC(=O)C2CCCN2S(=O)(=O)c2cccc3cccnc23)c1` (stereo not given) as the compound, how does the IC50 [11] read?
The IC50 was 3.03 µM (active).

What about the IC50 (CHO-K1) of the same compound?
Its IC50 is > 66.2 µM (inactive).

And the CC50 [12]?
The CC50 was 32.9 µM (active).

And the IC50 [13]?
Its IC50 is > 49.7 µM (inactive).

What about the IC50 [14] of the same compound?
Its IC50 is 0.244 µM (active).

Which results are given for `O=C(NNc1ncnc2c1cnn2-c1ccc(F)cc1)c1ccco1`?
IC50 [15]: < 0.368 µM (active); IC50 [16]: > 20 µM (inactive); EC50 [17]: 7.17 µM (active); EC50 [18]: > 53 µM (inactive)
